Here are results for three compounds from patent publication US20140356416A1, “LIPOSOMAL DRUG ENCAPSULATION” (priority 2011, published 2014).

Data set [1] in a line: Reverse pH gradient drug encapsulation efficiency in liposomes. The format is physicochemical. To be noted: for drug encapsulation: reverse pH gradient technology, FIG. 10. As to the method: The dried lipid film was hydrated with a buffer containing either ammonium phosphate, ammonium sulfate, sodium phosphate, or sodium sulfate (300 mM, pH 7.4) and vortexed for 1 minute to remove any adhering lipid film. Sonication in a bath sonicator (ULTRAsonik 28X) for 1 minute at room temperature produced multilamellar vesicles (MLV). MLVs were then sonicated with a Ti-probe (Branson 450 sonifier) for 2 minutes to produce small unilamellar vesicles (SUV), indicated by the formation of a translucent solution. Extrusion through a 100 nm pore size polycarbonate filter (Whatman) was the final stage of a stepwise series of extrusions to reduce SUV size.
The prepared liposomes with internal buffer at pH 3 or 7.4 were passed through a Sephadex G-50 column equilibrated with HEPES buffered saline (HBS; 20 mM HEPES, 150 mM NaCl, pH 7.4) to exchange the external buffer. […] The solution was heated at 50° C. for 20 minutes, left to stand 4 hours at room temperature, and then applied to a Sephadex G-50 column and eluted with MilliQ water.

Data set [2] in a line: Acute toxicity of free staurosporine at high dose. The format is in vivo. To be noted: 5 mg/Kg. From the text: Future, more comprehensive studies will use even lower doses of staurosporine alone, and in combination with other agents.
For data set [3] the following is noted: 0.8 mg/Kg injected as free drug, 'would very likely be' (Gurley et al.); cited from earlier work.
A further data set relates to U87 cells. As to the kind of experiment: In vivo anti-tumor activity, very large U87 flank tumors (180-200 mm^3). To be noted: treatment over two weeks.

With `COc1cc2ncnc(Nc3ccc(F)c(Cl)c3)c2cc1OCCCN1CCOCC1` [Gefitinib, N-(3-chloro-4-fluoro-phenyl)-7-methoxy-6-(3-morpholin-4-ylpropoxy)quinazolin-4-amine], in data set [1], the drug encapsulation entry is “good efficacy”.
On the same count and under the same terms, then `O=c1cc(N2CCOCC2)oc2c(-c3ccccc3)cccc12` [LY29004], with “good efficacy”.
For the compound `CN[C@@H]1C[C@H]2O[C@@](C)([C@@H]1OC)n1c3ccccc3c3c4c(c5c6ccccc6n2c5c31)C(=O)NC4` [staurosporine, (9S,10R,11R,13R)-2,3,10,11,12,13-Hexahydro-10-methoxy-9-methyl-11-(methylamino)-9,13-epoxy-1H,9H-diindolo[1,2,3-gh:3′,2′,1′-1m]pyrrolo[3,4-j][1,7]benzodiazonin-1-one], the “liposomal loading capacity, peak value” in data set [1] (drug to lipid ratio 0.09 (mole/mole)) amounted to 70%. The “increase of encapsulation when a gradient existed” value in data set [1] (internal buffer pH 7.4 versus pH 3, external buffer pH 3) is reported as 14 fold. For the same compound, the encapsulation rate entry in data set [1] (internal pH 5, external pH 7.4) was “very low”. Moreover, the acute toxicity entry in data set [2] is recorded as “acutely lethal”. The “fraction cleared after one circulatory pass” value in data set [3] is given as 99%. Also, in the data set on U87 cells, the body weight result is recorded as “body weight did decline”. For the same compound, the tumor growth result in the data set with U87 cells (relative to PBS (p<0.004)) is recorded as “no demonstrable effect”.
